Tested on: mouse-derived muscle cell line C2C12 (myotube cells)
Assay: Evaluation of muscle insulin signal (pAkt Ser473/total Akt, Western blotting) in myotubes exposed to palmitic acid (FFA)
Type: cell-based
Settings: FIG. 2; for muscle insulin signal lowered by FFA (phosphorylation index, [(pAkt/Total Akt) Insulin+]/[(pAkt/Total Akt) Insulin-]): amino acid 1 mM added simultaneously with 0.5 mM palmitic acid (FFA), 100 nM insulin stimulation; for action on muscle insulin signal compared with positive control NAC: amino acid 1 mM versus N-acetylcysteine (NAC) 5 mM, 0.5 mM FFA
Description: Using mouse C3H skeletal muscle myoblast (C2C12 cell) (DS Pharma Biomedical Co., Ltd.), the evaluation was performed. Induction of differentiation into myotube cells (Myotubes) was performed using cells with myoblast passage number of 12 to 18. Myoblasts were seeded in a 12-well (diameter=3 cm) plate at 0.3×10^5 to 0.5×10^5/well. After confirmation that the cell proliferation state reached 90% confluent, the medium was replaced with DMEM culture medium supplemented with 2(w/v) % horse serum (HS) and 1(w/v) % penicillin-streptomycin-[…](w/v) % HS, 1(w/v) % […](w/v) % Gln/DMEM), and differentiation into myotube cells (Myotubes) was induced. After confirmation of differentiation into myotube cells (Myotubes), a muscle insulin signal evaluation system was constructed, and the action of each of isoleucine, glycine, and cystine was evaluated using the constructed evaluation system. […] After culturing overnight, the cells were preincubated for about 2 hr in DMEM (BSA/FFA free) with an amino acid concentration of 1/5, stimulated by incubation (15 min-20 min) with 100 nM insulin, and the myotube cells were collected (each n=3). From the collected cells, proteins were extracted with RIPA (Radio-Immunoprecipitation Assay) buffer (Cell Signaling Technologies Inc.), adjusted to a final protein concentration of 0.5 mg/mL, and used as samples. The expression levels of phosphorylated Akt (pAkt) (Ser473) and [NT] in the above-mentioned sample were quantified by the Western blotting (WB) method using anti-phosphorylated Akt (pAkt) (Ser473) antibody (#92715; Cell Signaling Technologies Inc.) and anti-[NT] antibody (#9272S; Cell Signaling Technologies Inc.). The expression level of each protein was quantified using Western blot-chemiluminescent imaging system (Fusion FX) (Vilber-Lourmat Inc.). Each amino acid was added simultaneously with FFA, and the muscle quality-improving effect was examined with the recovery of the muscle insulin signal as an index. The final concentration of each amino acid was adjusted to 1 mM. As a positive control, an antioxidative active substance N-acetylcysteine (NAC) 5 mM was used. From the measurement results of the expression levels of phosphorylated Akt (Ser473) and total Akt, the ratio of phosphorylated Akt and total Akt with insulin stimulation to the ratio of phosphorylated Akt and total Akt without insulin stimulation [(pAkt/Total Akt) Insulin+]/[(pAkt/Total Akt) Insulin-] was determined and shown in FIG. 2 as the phosphorylation index (stimulation index). In FIG. 2, the phosphorylation index is shown as mean±standard error for each sample.

| SMILES | muscle insulin signal lowered by FFA (phosphorylation index, [(pAkt/Total Akt) Insulin+]/[(pAkt/Total Akt) Insulin-]) | action on muscle insulin signal compared with positive control NAC |
| --- | --- | --- |
| N[C@@H](CSSC[C@H](N)C(=O)O)C(=O)O [cystine, L-cystine] | restore the muscle insulin signal lowered by FFA | equal to or higher than that of NAC |
| NCC(=O)O [glycine] | restore the muscle insulin signal lowered by FFA | equal to or higher than that of NAC |
| CC[C@H](C)[C@H](N)C(=O)O [isoleucine, L-isoleucine] | restore the muscle insulin signal lowered by FFA | equal to or higher than that of NAC |

— patent US20210308084A1, “AGENT FOR IMPROVING MUSCLE QUALITY” (AJINOMOTO CO., INC., priority 2018, published 2021)
